From patent US10849896B2, “Sortilin-binding small molecules for increasing glucose uptake” (University of South Florida, priority 2015, dated 2020)

Legend:
Format in all cases: cell-based, mouse
3T3L1 cells = assay: [3-H]-deoxy-2-D-Glucose uptake in 3T3L1 adipocytes; settings: 500 nM; for glucose uptake: added day 3 of differentiation, maintained to day 8, without insulin; for glucose uptake with addition of insulin: day 3 to day 8, 100 nM insulin for 30 minutes
Protocol: To examine glucose uptake, 3T3L1 cells were treated on day 3 of differentiation with either 2-(3,5-dioxo-4-azatricyclo[5.2.1.0(2,6)]dec-8-en-4-yl)-4-methylpentanoic acid or 4-[(3,4-dichlorophenyl)amino]-3-(3-methylbenzyl)-4-oxobutanoic acid at 500 nM concentration and maintained in culture up to day 8 when the cells mature into adipocytes with well-developed lipid bodies. After 100 nM insulin was added to cells and maintained for 30 minutes, [3-H]-deoxy-2-D-Glucose uptake was measured.

sortilin mRNA = assay: RT-PCR for sortilin mRNA in treated 3T3L1 cells; settings: 500 nM, added day 3 of differentiation, maintained to day 8; total RNA
Protocol: (§1) 2-(3,5-Dioxo-4-azatricyclo[5.2.1.0˜2,6˜]dec-8-en-4-yl)-4-methylpentanoic acid and 4-[(3,4-dichlorophenyl)amino]-3-(3-methylbenzyl)-4-oxobutanoic acid were used to treat 3T3L1 cells at 500 nM concentration on day 3 of differentiation and maintained in culture up to day 8 when the cells mature into adipocytes with well-developed lipid bodies. Whole cell lysate was isolated and western blot analysis was performed using anti-sortilin antibody. […] To determine the compounds effect sortilin gene expression, 3T3L1 cells were treated as above and total RNA was isolated. RT-PCR was performed using sortilin primers.

sortilin = assay: Western blot for sortilin expression in treated 3T3L1 cells; settings: 500 nM, added day 3 of differentiation, maintained to day 8; whole cell lysate
Protocol: as §1

Compound	glucose uptake (3T3L1 cells)	glucose uptake with addition of insulin (3T3L1 cells)	mRNA levels of sortilin (RT-PCR) (sortilin mRNA)	sortilin expression (western blot, anti-sortilin antibody) (sortilin)
CC(C)CC(C(=O)O)N1C(=O)C2C3C=CC(C3)C2C1=O (centres unmarked) [2-(3,5-dioxo-4-azatricyclo[5.2.1.0(2,6)]dec-8-en-4-yl)-4-methylpentanoic acid]	increase in glucose uptake	further increased	not affected	increase in sortilin expression
Cc1cccc(CC(CC(=O)O)C(=O)Nc2ccc(Cl)c(Cl)c2)c1 (centres unmarked) [4-[(3,4-dichlorophenyl)amino]-3-(3-methylbenzyl)-4-oxobutanoic acid]	increase in glucose uptake	further increased	not affected	increase in sortilin expression
